In the NIST ThermoML archive (doi:10.1016/j.jct.2015.07.028):
± gives the expanded uncertainty stated by the source.

Assay: molar heat capacity at saturation pressure
Settings: Small (less than 1 g) adiabatic calorimetry

C=CC(C)(C)O [2-methyl-3-buten-2-ol]
molar heat capacity [J/K/mol]
Settings | Crystal 1 | Liquid
169.35 K | 120.3 ± 0.7 | –
169.77 K | 120.8 ± 0.7 | –
170 K | 121 ± 0.7 | –
171.3 K | 122.5 ± 0.7 | –
172.07 K | 123.4 ± 0.7 | –
173.24 K | 124.6 ± 0.7 | –
174.35 K | 125.9 ± 0.7 | –
175.17 K | 126.8 ± 0.7 | –
176.62 K | 128.4 ± 0.7 | –
177.09 K | 128.8 ± 0.7 | –
178.87 K | 130.7 ± 0.7 | –
179 K | 130.8 ± 0.7 | –
179.83 K | 131.6 ± 0.7 | –
180 K | 131.9 ± 0.7 | –
180.91 K | 132.7 ± 0.7 | –
181.12 K | 133 ± 0.7 | –
182.29 K | 134.1 ± 0.7 | –
182.8 K | 134.7 ± 0.8 | –
183.35 K | 135.2 ± 0.8 | –
184.61 K | 136.5 ± 0.8 | –
184.69 K | 136.5 ± 0.8 | –
185.57 K | 137.5 ± 0.8 | –
186.58 K | 138.4 ± 0.8 | –
186.93 K | 138.7 ± 0.8 | –
187.79 K | 139.5 ± 0.8 | –
188.45 K | 140.2 ± 0.8 | –
189.23 K | 140.9 ± 0.8 | –
189.99 K | 141.7 ± 0.8 | –
190 K | 141.7 ± 0.8 | –
190.32 K | 141.9 ± 0.8 | –
190.4 K | 142 ± 0.8 | –
191.52 K | 143.1 ± 0.8 | –
192.18 K | 143.7 ± 0.8 | –
192.46 K | 144.1 ± 0.8 | –
193.79 K | 145.4 ± 0.8 | –
194.04 K | 145.5 ± 0.8 | –
194.36 K | 146 ± 0.8 | –
194.42 K | 146 ± 0.8 | –
195.89 K | 147.4 ± 0.8 | –
196.05 K | 147.7 ± 0.8 | –
196.36 K | 147.9 ± 0.8 | –
196.53 K | 148.2 ± 0.8 | –
197.73 K | 149.3 ± 0.8 | –
198.3 K | 150 ± 0.8 | –
198.69 K | 150.5 ± 0.8 | –
199.56 K | 151.3 ± 0.8 | –
200 K | 151.5 ± 0.8 | –
200.23 K | 152 ± 0.8 | –
200.54 K | 152.4 ± 0.8 | –
200.84 K | 152.9 ± 0.8 | –
201.38 K | 153.4 ± 0.8 | –
202.15 K | 154.2 ± 0.8 | –
202.82 K | 155.2 ± 0.9 | –
202.98 K | 155.5 ± 0.9 | –
203.2 K | 155.5 ± 0.9 | –
204.05 K | 156.6 ± 0.9 | –
205 K | 157.8 ± 0.9 | –
205.1 K | 158.3 ± 0.9 | –
205.14 K | 158.2 ± 0.9 | –
205.95 K | 159.3 ± 0.9 | –
206.79 K | 160.4 ± 0.9 | –
207.21 K | 161.1 ± 0.9 | –
207.45 K | 161.3 ± 0.9 | –
207.83 K | 162 ± 0.9 | –
208.58 K | 163 ± 0.9 | –
209.3 K | 164.2 ± 0.9 | –
209.7 K | 164.9 ± 0.9 | –
209.73 K | 164.8 ± 0.9 | –
210 K | 161.4 ± 0.8 | –
210.51 K | 166.1 ± 0.9 | –
211.48 K | 167.6 ± 0.9 | –
211.99 K | 168.4 ± 0.9 | –
212.63 K | 169.5 ± 0.9 | –
213.77 K | 171.3 ± 0.9 | –
214.23 K | 172.1 ± 0.9 | –
214.72 K | 172.9 ± 0.9 | –
216.04 K | 174.8 ± 0.9 | –
216.46 K | 175.1 ± 0.9 | –
216.8 K | 176 ± 1 | –
218.3 K | 178.6 ± 1 | –
218.66 K | 178.8 ± 1 | –
218.86 K | 179 ± 1 | –
220 K | 171.2 ± 0.9 | –
220.53 K | 182.2 ± 1 | –
220.85 K | 182.3 ± 1 | –
220.9 K | 182.4 ± 1 | –
222.77 K | 186.2 ± 1 | –
222.93 K | 186.4 ± 1 | –
223.02 K | 186.5 ± 1 | –
224.94 K | 191.2 ± 1 | –
224.97 K | 190.4 ± 1 | –
225.17 K | 191 ± 1 | –
226.94 K | 195.7 ± 1 | –
227.09 K | 196.6 ± 1.1 | –
227.29 K | 196 ± 1 | –
228.88 K | 201.4 ± 1.1 | –
229.2 K | 202.9 ± 1.1 | –
229.37 K | 202.7 ± 1.1 | –
230.8 K | 208.3 ± 1.1 | –
231.27 K | 210.9 ± 1.1 | –
231.43 K | 210.5 ± 1.1 | –
232.67 K | 217.3 ± 1.2 | –
233.3 K | 221.6 ± 1.2 | –
233.43 K | 221.3 ± 1.2 | –
234.49 K | 229.7 ± 1.2 | –
235.25 K | 237.1 ± 1.3 | –
235.37 K | 236.9 ± 1.3 | –
236.24 K | 248.1 ± 1.3 | –
240 K | 190.8 ± 1.1 | –
245.03 K | 195.7 ± 1.1 | 193.8 ± 1.1
245.63 K | – | 195.7 ± 1
245.81 K | – | 194.6 ± 1
246.77 K | – | 194.9 ± 1
247.82 K | – | 195.6 ± 1
247.97 K | – | 195.7 ± 1
248.89 K | – | 196.3 ± 1.1
249.15 K | – | 196.4 ± 1.1
250 K | – | 197.1 ± 1.1
250.07 K | – | 197.1 ± 1.1
250.13 K | – | 197.2 ± 1.1
250.55 K | – | 197.4 ± 1.1
251.14 K | – | 197.8 ± 1.1
251.38 K | – | 197.9 ± 1.1
252.31 K | – | 198.7 ± 1.1
252.44 K | – | 198.8 ± 1.1
252.58 K | – | 198.8 ± 1.1
253.39 K | – | 199.4 ± 1.1
253.62 K | – | 199.5 ± 1.1
254.55 K | – | 200.3 ± 1.1
254.63 K | – | 200.3 ± 1.1
254.88 K | – | 200.5 ± 1.1
255.63 K | – | 201 ± 1.1
255.85 K | – | 201.2 ± 1.1
256.68 K | – | 201.8 ± 1.1
256.78 K | – | 201.9 ± 1.1
257.32 K | – | 202.4 ± 1.1
257.86 K | – | 202.7 ± 1.1
258.07 K | – | 202.9 ± 1.1
258.73 K | – | 203.4 ± 1.1
259 K | – | 203.6 ± 1.1
259.76 K | – | 204.2 ± 1.1
260 K | – | 204.4 ± 1.1
260.78 K | – | 205 ± 1.1
262.18 K | – | 206.2 ± 1.1
262.83 K | – | 206.7 ± 1.1
264.6 K | – | 208.1 ± 1.1
264.88 K | – | 208.4 ± 1.1
266.93 K | – | 210 ± 1.1
267.01 K | – | 210.2 ± 1.1
268.98 K | – | 211.8 ± 1.1
269.4 K | – | 212.2 ± 1.1
270 K | – | 212.7 ± 1.2
271.03 K | – | 213.5 ± 1.1
271.79 K | – | 214.3 ± 1.1
273.08 K | – | 215.2 ± 1.1
273.15 K | – | 215.4 ± 1.2
274.18 K | – | 216.2 ± 1.1
275.13 K | – | 217.1 ± 1.2
276.55 K | – | 218.4 ± 1.2
277.18 K | – | 218.9 ± 1.2
278.91 K | – | 220.5 ± 1.2
279.23 K | – | 220.7 ± 1.2
280 K | – | 221.4 ± 1.2
281.26 K | – | 222.6 ± 1.2
281.28 K | – | 222.6 ± 1.2
283.33 K | – | 224.4 ± 1.2
283.61 K | – | 224.6 ± 1.2
285.38 K | – | 226.2 ± 1.2
285.94 K | – | 226.8 ± 1.2
287.43 K | – | 228 ± 1.2
288.26 K | – | 228.9 ± 1.2
289.48 K | – | 229.9 ± 1.2
290 K | – | 230.3 ± 1.2
290.57 K | – | 230.9 ± 1.2
291.53 K | – | 231.6 ± 1.2
292.87 K | – | 232.8 ± 1.2
293.58 K | – | 233.4 ± 1.2
295.16 K | – | 234.7 ± 1.2
295.63 K | – | 235.2 ± 1.2
297.44 K | – | 236.8 ± 1.2
297.69 K | – | 236.9 ± 1.2
298.15 K | – | 237.4 ± 1.2
299.72 K | – | 238.7 ± 1.3
299.74 K | – | 238.7 ± 1.3
300 K | – | 238.9 ± 1.3
301.79 K | – | 240.4 ± 1.3
303.84 K | – | 242.1 ± 1.3
305.9 K | – | 243.7 ± 1.3
307.95 K | – | 245.3 ± 1.3
310 K | – | 246.9 ± 1.3
310.01 K | – | 246.9 ± 1.3
312.06 K | – | 248.3 ± 1.3
314.12 K | – | 249.9 ± 1.3
316.18 K | – | 251.3 ± 1.3
318.23 K | – | 252.8 ± 1.3
320 K | – | 253.9 ± 1.3
320.29 K | – | 254.1 ± 1.3
322.35 K | – | 255.4 ± 1.3
324.41 K | – | 256.7 ± 1.3
326.47 K | – | 258 ± 1.4
328.53 K | – | 259.1 ± 1.4
330 K | – | 259.9 ± 1.3
330.59 K | – | 260.2 ± 1.4
332.65 K | – | 261.4 ± 1.4
334.71 K | – | 262.3 ± 1.4
336.78 K | – | 263.3 ± 1.4
338.84 K | – | 264.2 ± 1.4
340 K | – | 264.7 ± 1.4
340.9 K | – | 265 ± 1.4
342.97 K | – | 265.8 ± 1.4
345.03 K | – | 266.6 ± 1.4
347.09 K | – | 267.3 ± 1.4
349.16 K | – | 268 ± 1.4
350 K | – | 268.3 ± 1.4
351.22 K | – | 268.7 ± 1.4
353.29 K | – | 269.1 ± 1.4
355.35 K | – | 269.8 ± 1.4
357.42 K | – | 270.4 ± 1.4
359.48 K | – | 270.9 ± 1.4
360 K | – | 270.9 ± 1.4
361.55 K | – | 271.3 ± 1.4
363.61 K | – | 271.6 ± 1.4
365.68 K | – | 272.1 ± 1.4
367.74 K | – | 272.4 ± 1.4
370 K | – | 272.9 ± 1.4
